Common to all, as to type: in vivo
Test [1] in a line: Sensory evaluation, intensity of umami in aqueous MSG solution. Particulars: additive-free = 3.0. As to the method: (§1) All sensory evaluation of taste was performed by individuals wearing a nose clip. The evaluation was performed by groups of three individuals, and the scores were averaged.
(§2) To a 0.2% aqueous sodium glutamate (MSG) solution (=umami), a 0.8% aqueous salt (NaCl) solution (=saltiness) and a 2% aqueous sucrose solution (=sweetness) were added 10 ppm linear aliphatic aldehydes having 3-12 carbon atoms shown in Table 1, respectively. Sensory evaluation was performed in which intensity of taste sensed when each of the aqueous solutions is introduced into the mouth is defined as “Intensity of umami” for the aqueous MSG solution, “Intensity of saltiness” for the aqueous NaCl solution and “Intensity of sweetness” for the aqueous sucrose solution. The score of aldehyde-free taste intensity was set to 3.0, and taste intensity upon addition of aldehyde was evaluated as follows. The results are shown in Table 1. • 1.0: Much weaker • 2.0: Weaker • 3.0: Similar • 4.0: Stronger • 5.0: Much Stronger
(§3) To a 0.2% aqueous sodium glutamate (MSG) solution (=umami), a 0.8% aqueous salt (NaCl) solution (=saltiness), a 2% aqueous sucrose solution (=sweetness) were added 10 ppm linear aliphatic alcohols having 2-11 carbon atoms, respectively. Sensory evaluation was performed in which intensity of taste sensed when each of the aqueous solutions is introduced into the mouth is defined as “Intensity of umami” for the aqueous MSG solution, “Intensity of saltiness” for the aqueous NaCl solution and “Intensity of sweetness” for the aqueous sucrose solution. The score of alcohol-free taste intensity was set to 3.0, and taste intensity upon addition was evaluated as follows. The results are shown in Table 3. • 1.0: Much weaker • 2.0: Weaker • 3.0: Similar • 4.0: Stronger • 5.0: Much stronger
(§4) To a 0.2% aqueous sodium glutamate (MSG) solution (=umami), a 0.8% aqueous salt (NaCl) solution (=saltiness), a 2% aqueous sucrose solution (=sweetness) were added 1 ppm n-hexanal and 1ppm 1-octene-3-ol each, respectively. Sensory evaluation was performed in which the intensity of taste sensed when each of the aqueous solutions is introduced into the mouth is defined as “Intensity of umami” for the aqueous MSG solution, “Intensity of saltiness” for the aqueous NaCl solution and “Intensity of sweetness” for the aqueous sucrose solution. The score of additive-free taste intensity was set to 3.0, and taste intensity upon addition was evaluated as follows. The results are shown in Table 9. • 1.0: Much weaker • 2.0: Weaker • 3.0: Similar • 4.0: Stronger • 5.0: Much stronger

Test [2] is described as follows: Sensory evaluation, intensity of saltiness in aqueous NaCl solution. Particulars: additive-free = 3.0. As to the method:
as §1, §2, §3, §4

Test [3] is described as follows: Sensory evaluation, intensity of sweetness in aqueous sucrose solution. The settings on record: additive-free = 3.0. As to the method:
as §1, §2, §3, §4

A short description of test [4]: Sensory evaluation whether salt usage can be reduced. The settings on record: for Scores in sensory evaluation (taste intensity, saltiness): 0.5% NaCl solution = 3.0. As to the method:
as §1
Evaluation was conducted to find whether salt usage can be reduced by the taste enhancing effects. To a 0.5% aqueous NaCl solution was added 10 ppm n-hexanal or 10 ppm 1-octen-3-ol. Taste intensity was determined in the sensory evaluation where the taste intensity of the 0.5% NaCl solution was set to 3.0. For comparison, sensory evaluation was also performed for a 0.8% and 0.6% concentration of aqueous NaCl solution. The sensory evaluation was evaluated as follows. The results are shown in Table 5. • 1.0: Much weaker • 2.0: Weaker • 3.0: Similar • 4.0: Stronger • 5.0: Much stronger

Test [5] in a line: Sensory evaluation whether sucrose usage can be reduced. Particulars: for Scores in sensory evaluation (taste intensity, sweetness): 1.5% sucrose solution = 3.0. How it is done: as §1
Evaluation was conducted to find whether sucrose usage can be reduced by the taste enhancing effects. To a 1.5% aqueous sucrose solution was added 10 ppm n-hexanal or 10 ppm 1-octen-3-ol. Taste intensity was determined in the sensory evaluation where the taste intensity of the 1.5% sucrose solution was set to 3.0. For comparison, sensory evaluation was also performed for a 2.0% and 1.8% concentration of aqueous sucrose solution. The sensory evaluation was evaluated as follows. The results are shown in Table 6. • 1.0: Much weaker • 2.0: Weaker • 3.0: Similar • 4.0: Stronger • 5.0: Much stronger

Test [6] in a line: Sensory evaluation, intensity of umami in aqueous MSG solution. The settings on record: additive-free = 3.0. The source holds these as a separate data set.
Test [7] is described as follows: Sensory evaluation, intensity of saltiness in aqueous NaCl solution. The settings on record: additive-free = 3.0. The source holds these as a separate data set.
Test [8] is described as follows: Sensory evaluation, intensity of sweetness in aqueous sucrose solution. The settings on record: additive-free = 3.0. This is another data set of the same source.
A short description of test [9]: Sensory evaluation, intensity of umami in diluted soy sauce. The settings on record: 10 ppm in soy sauce diluted to 2% in water; aldehyde-free = 3.0; scale 1.0-5.0. How it is done: as §1
(§5) Sensory evaluation was performed for “Intensity of Umani ” and “ Intensity of Saltiness “. The score of aldehyde-free taste intensity was set to 3.0, and taste intensity upon addition was evaluated as follows. The results are shown in Table 7. • 1.0: Much weaker • 2.0: Weaker • 3.0: Similar • 4.0: Stronger • 5.0: Much stronger

A short description of test [10]: Sensory evaluation, intensity of saltiness in diluted soy sauce. Particulars: 10 ppm in soy sauce diluted to 2% in water; aldehyde-free = 3.0; scale 1.0-5.0. How it is done: as §1, §5
Test [11] can be described thus: Sensory evaluation, intensity of sweetness in whipped cream. Particulars: 100 ppm in whipped cream; aldehyde-free = 3.0; scale 1.0-5.0. How it is done: as §1
Sensory evaluation was performed for “Intensity of sweetness”. The score of aldehyde-free taste intensity was set to 3.0, and taste intensity upon addition was evaluated as follows. The results are shown in Table 8. • 1.0: Much weaker • 2.0: Weaker • 3.0: Similar • 4.0: Stronger • 5.0: Much stronger

Setting [12] is: 10 ppm added to 0.2% MSG, 1.0 much weaker to 5.0 much stronger, mean of three individuals, nose clip.
[13] abbreviates: 10 ppm added to 0.8% NaCl, 1.0 much weaker to 5.0 much stronger.
Setting [14] is: 10 ppm added to 2% sucrose, 1.0 much weaker to 5.0 much stronger.

Consider `C=CC(O)CCCCC` (centres unmarked) [Example 1-octen-3-ol, 1-octen-3-ol], for which the “Intensity of umami, Aqueous MSG solution” value in [1] (1 ppm added to 0.2% MSG, scale 1.0-5.0) turned out to be 3.5; in test [1] (setting [12]), 3.5; in test [6] (0.01 ppm added to 0.2% MSG, scale 1.0-5.0) it was 3.2; in test [6] (0.1 ppm added to 0.2% MSG, scale 1.0-5.0), 3.2; in test [6] (100 ppm added to 0.2% MSG, scale 1.0-5.0) it was 3.8; in [6] (1000 ppm added to 0.2% MSG, scale 1.0-5.0), 3.8. Moreover, the “Intensity of saltiness, Aqueous NaCl solution” value in test [2] (1 ppm added to 0.8% NaCl, scale 1.0-5.0) was 3.5; in test [2] (setting [13]), 3.5; in test [7] (0.01 ppm added to 0.8% NaCl, scale 1.0-5.0), 3.2; in test [7] (0.1 ppm added to 0.8% NaCl, scale 1.0-5.0) it was 3.5; in test [7] (100 ppm added to 0.8% NaCl, scale 1.0-5.0) it was 3.8; in [7] (1000 ppm added to 0.8% NaCl, scale 1.0-5.0) it was 3.8. In addition, the “Intensity of sweetness, Aqueous sucrose solution” value was 3.2 in [3] (1 ppm added to 2% sucrose, scale 1.0-5.0); 3.5 in [3] (setting [14]); 3.2 in test [8] (0.01 ppm added to 2% sucrose, scale 1.0-5.0); 3.2 in test [8] (0.1 ppm added to 2% sucrose, scale 1.0-5.0); 3.5 in test [8] (100 ppm added to 2% sucrose, scale 1.0-5.0); 3.5 in test [8] (1000 ppm added to 2% sucrose, scale 1.0-5.0). Moreover, the “Concentration of aqueous NaCl solution of similar saltiness intensity” value in [4] (10 ppm added to 0.5% aqueous NaCl solution) is about 0.6%. The “Scores in sensory evaluation (taste intensity, saltiness)” value in test [4] (10 ppm added to 0.5% aqueous NaCl solution, scale 1.0-5.0) was 3.5. For the same compound, the “Concentration of aqueous sucrose solution of comparable/similar sweetness intensity” value in test [5] (10 ppm added to 1.5% aqueous sucrose solution) is about 1.8%. Besides, the “Scores in sensory evaluation (taste intensity, sweetness)” value in [5] (10 ppm added to 1.5% aqueous sucrose solution, scale 1.0-5.0) is 3.5.

`[Cl-].[Na+]` [NaCl, sodium chloride, reference compound]: the “Scores in sensory evaluation (taste intensity, saltiness)” value in [4] (0.6% aqueous NaCl solution, nothing added, for comparison) turned out to be 3.5; in [4] (0.8% aqueous NaCl solution, nothing added, for comparison) it was 4.0.

Regarding `CCCC=O` [n-butanal], the “Intensity of umami, Aqueous MSG solution” value in test [1] (setting [12]) was found to be 3.5. Moreover, the “Intensity of saltiness, Aqueous NaCl solution” value in [2] (setting [13]) is listed as 3.5. Besides, the “Intensity of sweetness, Aqueous sucrose solution” value in [3] (setting [14]) worked out at 3.5. In test [9], this compound gave an Intensity of umami of 3.5. For the same compound, in test [10], the Intensity of saltiness was determined as 3.5. This compound also returned an Intensity of sweetness in [11] of 3.5.

Turning to `CCCCCCCCCC=O` [n-decanal], in test [1] (setting [12]), the “Intensity of umami, Aqueous MSG solution” value is listed as 3.5. In addition, the “Intensity of saltiness, Aqueous NaCl solution” value in [2] (setting [13]) came to 3.5. Further, in [3] (setting [14]), the “Intensity of sweetness, Aqueous sucrose solution” value is 3.5. The compound further came in with an Intensity of umami in test [9] of 3.5. For the same compound, the Intensity of saltiness in [10] was 3.5. Besides, the Intensity of sweetness in [11] came out at 3.5.

Regarding `CCCCCCC=O` [n-heptanal], the “Intensity of umami, Aqueous MSG solution” value in test [1] (setting [12]) is reported as 4.5. Also, the “Intensity of saltiness, Aqueous NaCl solution” value in test [2] (setting [13]) turned out to be 4.5. In test [3] (setting [14]), the “Intensity of sweetness, Aqueous sucrose solution” value is recorded as 4.0. In [9], this compound gave an Intensity of umami of 4.0. Further, the Intensity of saltiness in [10] is 4.0. Also, in [11], the Intensity of sweetness turned out to be 4.0.

Turning to `CCCCCCCC=O` [n-octanal], the “Intensity of umami, Aqueous MSG solution” value in test [1] (setting [12]) worked out at 3.8. Besides, in [2] (setting [13]), the “Intensity of saltiness, Aqueous NaCl solution” value turned out to be 3.8. In addition, the “Intensity of sweetness, Aqueous sucrose solution” value in [3] (setting [14]) was found to be 3.5. In [9], this compound displayed an Intensity of umami of 3.5. Also, the Intensity of saltiness in [10] is 3.5. In test [11], this compound gave an Intensity of sweetness of 3.5.

With `CCCCC=O` [n-pentanal], the “Intensity of umami, Aqueous MSG solution” value in test [1] (setting [12]) stood at 4.5. The “Intensity of saltiness, Aqueous NaCl solution” value in test [2] (setting [13]) is listed as 4.5. The “Intensity of sweetness, Aqueous sucrose solution” value in test [3] (setting [14]) came out at 4.0. The compound further had an Intensity of umami in [9] of 4.2. For the same compound, the Intensity of saltiness in test [10] was 4.2. For the same compound, the Intensity of sweetness in [11] came to 4.2.

With `CCC=O` [n-propanal], the “Intensity of umami, Aqueous MSG solution” value in [1] (setting [12]) came out at 3.5. Further, the “Intensity of saltiness, Aqueous NaCl solution” value in [2] (setting [13]) is 3.5. The “Intensity of sweetness, Aqueous sucrose solution” value in test [3] (setting [14]) came out at 3.5. In test [9], this compound yielded an Intensity of umami of 3.5. Further, the Intensity of saltiness in test [10] is 3.5. Also, the Intensity of sweetness in test [11] is recorded as 3.5.

With `CCCO` [propanol, reference compound], in test [6] (setting [12]), the “Intensity of umami, Aqueous MSG solution” value worked out at 3.0. The “Intensity of saltiness, Aqueous NaCl solution” value in test [7] (setting [13]) was 3.0. In addition, the “Intensity of sweetness, Aqueous sucrose solution” value in test [8] (setting [14]) was found to be 3.0.

In the case of `OC[C@H]1O[C@@](CO)(O[C@H]2O[C@H](CO)[C@@H](O)[C@H](O)[C@H]2O)[C@@H](O)[C@@H]1O` [sucrose, reference compound], the “Scores in sensory evaluation (taste intensity, sweetness)” value in test [5] (1.8% aqueous sucrose solution, nothing added, for comparison) is recorded as 3.5; in test [5] (2.0% aqueous sucrose solution, nothing added, for comparison) it was 4.0.

The values are drawn from patent publication US20120177797A1, “TASTE ENHANCING AGENT” (J-OIL MILLS, INC., priority 2009, published 2012).
